Experimental data: ChEMBL document CHEMBL1136479, “DAPI derivative: a fluorescent DNA dye that can be covalently attached to biomolecules” (Bioorg Med Chem Lett, 2003)
Where “and” joins values, the source holds several entries; their conditions need not be identical. Equal entries are not always repeated.

Assays:
[1] = The background fluorescence was measured in TE buffer in the presence of calf thymus DNA (4 ug/mL) at a molar ratio of 8000:1 (Compound:DNA)
[2] = The background fluorescence was measured in TE buffer in the presence of calf thymus DNA (4 ug/mL) at a molar ratio of 1000:1 (Compound:DNA)
[3] = The background fluorescence was measured in TE buffer in the presence of calf thymus DNA (4 ug/mL) at a molar ratio of 2000:1 (Compound:DNA)
[4] = The background fluorescence was measured in TE buffer in the presence of calf thymus DNA (4 ug/mL) at a molar ratio of 4000:1 (Compound:DNA)
[5] = The background fluorescence was measured in TE buffer in the absence of DNA
[6] = Enhancement in fluorescence intensity was calculated as fluorescence intensity in presence of DNA/fluorescence intensity in absence of DNA

Row | SMILES | Fluorescence intensity [1] | Fluorescence intensity [2] | Fluorescence intensity [3] | Fluorescence intensity [4] | Fluorescence intensity [5] | Enhancement [6]
1 | N=C(N)c1ccc(-c2cc3ccc(C(=N)N)cc3[nH]2)cc1 | 295 | 179 | 214 | 236 |  | 
2 | N=C(N)c1ccc(-c2[nH]c3cc(C(=N)N)ccc3c2Cc2cc([N+](=O)[O-])ccc2O)cc1 | 86.7 |  | 75 | 94.8 | 25.3 and 15.7 and 9.8 | 3.4 and 6 and 7.7
